Reference: PubChem BioAssay (NCI)
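At the GI50, growth is halved. TGI: total growth inhibition.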

Assays:
Assay in all cases: NCI tumour cell line growth inhibition, 384-well format
[1] = system: M14 melanoma
[2] = system: SK-MEL-28 melanoma
[3] = system: SN12C renal
[4] = system: SF-295 CNS
[5] = system: TK-10 renal
[6] = system: CAKI-1 renal
[7] = system: HCC-2998 colon
[8] = system: SF-539 CNS
[9] = system: LOX IMVI melanoma
[10] = system: SK-MEL-5 melanoma
[11] = system: NCI-H460 NSCLC
[12] = system: NCI-H23 lung
[13] = system: HOP-62 NSCLC
[14] = system: SNB-19 CNS
[15] = system: HL-60(TB) leukemia
[16] = system: HS 578T breast
[17] = system: A549 NSCLC
[18] = system: MDA-MB-231 breast
[19] = system: UACC-257 melanoma
[20] = system: OVCAR-8 ovarian
[21] = system: UACC-62 melanoma
[22] = system: COLO 205 colon
[23] = system: MALME-3M melanoma
[24] = system: MDA-MB-468 breast
[25] = system: PC-3 prostate
[26] = system: A498 renal
[27] = system: MCF7 breast
[28] = system: HCT-116 colon
[29] = system: SR leukemia
[30] = system: NCI-H522 lung
[31] = system: HOP-92 NSCLC
[32] = system: ACHN renal
[33] = system: NCI/ADR-RES ovarian
[34] = system: OVCAR-4 ovarian
[35] = system: HT29 colon
[36] = system: SK-OV-3 ovarian
[37] = system: NCI-H322M lung
[38] = system: MDA-MB-435 melanoma
[39] = system: HCT-15 colon
[40] = system: DU-145 prostate
[41] = system: RPMI-8226 leukemia
[42] = system: U251 glioblastoma
[43] = system: OVCAR-3 ovarian
[44] = system: EKVX NSCLC
[45] = system: NCI-H226 lung
[46] = system: BT-549 breast
[47] = system: OVCAR-5 ovarian
[48] = system: KM12 colon
[49] = system: SNB-75 CNS
[50] = system: T-47D breast
[51] = system: RXF 393 renal
[52] = system: IGROV1 ovarian
[53] = system: SF-268 CNS
[54] = system: MOLT-4 leukemia
[55] = system: SW-620 colon
[56] = system: UO-31 renal
[57] = system: CCRF-CEM leukemia
[58] = system: K-562 leukemia
[59] = system: 786-0 renal
[60] = system: SK-MEL-2 melanoma

Cc1ccc(F)c(NC(=O)Nc2ccc(-c3cccc4[nH]nc(N)c34)cc2)c1
GI50 [1]: 1.96 µM
TGI [1]: 4.86 µM
GI50 [2]: 4.44 µM
TGI [2]: 15.6 µM
GI50 [3]: 1.26 µM
TGI [3]: 2.89 µM
GI50 [4]: 3.17 µM
TGI [4]: 10.5 µM
GI50 [5]: 2.07 µM
TGI [5]: 5.48 µM
GI50 [6]: 2.84 µM
TGI [6]: 7.73 µM
GI50 [7]: 1.27 µM
TGI [7]: 2.65 µM
GI50 [8]: 1.44 µM
TGI [8]: 3.49 µM
GI50 [9]: 1.85 µM
TGI [9]: 3.32 µM
GI50 [10]: 1.34 µM
TGI [10]: 2.67 µM
GI50 [11]: 1.61 µM
TGI [11]: 3.02 µM
GI50 [12]: 1.71 µM
TGI [12]: 3.4 µM
GI50 [13]: 1.94 µM
TGI [13]: 5.5 µM
GI50 [14]: 3.26 µM
TGI [14]: 8.97 µM
GI50 [15]: 1.27 µM
TGI [15]: 2.54 µM
GI50 [16]: 2.19 µM
TGI [16]: 5.31 µM
GI50 [17]: 3.14 µM
TGI [17]: 9.44 µM
GI50 [18]: 3.83 µM
TGI [18]: 15.2 µM
GI50 [19]: 1.83 µM
TGI [19]: 3.95 µM
GI50 [20]: 2.01 µM
TGI [20]: 9.04 µM
GI50 [21]: 2.31 µM
TGI [21]: 5.7 µM
GI50 [22]: 1.93 µM
TGI [22]: 4.29 µM
GI50 [23]: 1.93 µM
TGI [23]: 4.24 µM
GI50 [24]: 1.8 µM
TGI [24]: 3.69 µM
GI50 [25]: 2.31 µM
TGI [25]: 4.82 µM
GI50 [26]: 2.03 µM
TGI [26]: 4.58 µM
GI50 [27]: 1.08 µM
TGI [27]: 4.28 µM
GI50 [28]: 1.99 µM
TGI [28]: 4.6 µM
GI50 [29]: 1.49 µM
TGI [29]: 2.82 µM
GI50 [30]: 2.05 µM
TGI [30]: 3.54 µM
GI50 [31]: 3.96 µM
TGI [31]: 12.6 µM
GI50 [32]: 2.13 µM
TGI [32]: 5.05 µM
GI50 [33]: 2.43 µM
TGI [33]: 9.01 µM
GI50 [34]: 1.6 µM
TGI [34]: 3.98 µM
GI50 [35]: 1.77 µM
TGI [35]: 4.58 µM
GI50 [36]: 2.42 µM
TGI [36]: 11.6 µM
GI50 [37]: 2.15 µM
TGI [37]: 5.5 µM
GI50 [38]: 2.16 µM
TGI [38]: 4.25 µM
GI50 [39]: 1.82 µM
TGI [39]: 4.3 µM
GI50 [40]: 1.73 µM
TGI [40]: 3.55 µM
GI50 [41]: 1.76 µM
TGI [41]: 3.16 µM
GI50 [42]: 2.27 µM
TGI [42]: 4.83 µM
GI50 [43]: 1.75 µM
TGI [43]: 3.25 µM
GI50 [44]: 2.13 µM
TGI [44]: 4.53 µM
GI50 [45]: 2.44 µM
TGI [45]: 9.13 µM
GI50 [46]: 1.99 µM
TGI [46]: 3.79 µM
GI50 [47]: 1.82 µM
TGI [47]: 3.89 µM
GI50 [48]: 0.432 µM
TGI [48]: 3.87 µM
GI50 [49]: 2.67 µM
TGI [49]: 9.2 µM
GI50 [50]: 2.85 µM
TGI [50]: 14.2 µM
GI50 [51]: 1.56 µM
TGI [51]: 3.59 µM
GI50 [52]: 1.78 µM
TGI [52]: 3.79 µM
GI50 [53]: 2.3 µM
TGI [53]: 7.63 µM
GI50 [54]: 1.91 µM
TGI [54]: 3.35 µM

NC(=O)c1cccc2c(N[C@H](CN3CCC3)c3ccc(Cl)c(C(F)(F)F)c3)ncnc12
GI50 [1]: 1.21 µM
TGI [1]: 2.48 µM
GI50 [2]: 1.26 µM
TGI [2]: 2.69 µM
GI50 [3]: 2.1 µM
TGI [3]: 12.6 µM
GI50 [4]: 1.02 µM
TGI [4]: 3.22 µM
GI50 [5]: 1.25 µM
TGI [5]: 3.18 µM
GI50 [6]: 1.29 µM
TGI [6]: 3.65 µM
GI50 [7]: 1.04 µM
TGI [7]: 2.23 µM
GI50 [55]: 1.86 µM
TGI [55]: 7.73 µM
GI50 [8]: 0.195 µM
TGI [8]: 1.63 µM
GI50 [9]: 2.18 µM
TGI [9]: 7 µM
GI50 [10]: 1.38 µM
TGI [10]: 2.69 µM
GI50 [11]: 0.366 µM
TGI [11]: 2.4 µM
GI50 [12]: 1.73 µM
TGI [12]: 6.24 µM
GI50 [13]: 3.32 µM
TGI [13]: 12 µM
GI50 [56]: 1.58 µM
TGI [56]: 9.03 µM
GI50 [14]: 1.73 µM
TGI [14]: 5.2 µM
GI50 [15]: 1.56 µM
TGI [15]: 2.91 µM
GI50 [16]: 0.75 µM
TGI [16]: 2.35 µM
GI50 [17]: 1.51 µM
TGI [17]: 6.39 µM
GI50 [18]: 2.72 µM
TGI [18]: 13.7 µM
GI50 [19]: 1.02 µM
TGI [19]: 2.19 µM
GI50 [20]: 2.56 µM
TGI [20]: 11.2 µM
GI50 [21]: 0.98 µM
TGI [21]: 2.21 µM
GI50 [57]: 0.41 µM
TGI [57]: 1.75 µM
GI50 [22]: 0.951 µM
TGI [22]: 2.16 µM
GI50 [23]: 0.457 µM
TGI [23]: 1.71 µM
GI50 [24]: 0.256 µM
TGI [24]: 1.25 µM
GI50 [25]: 0.345 µM
TGI [25]: 3.85 µM
GI50 [26]: 0.138 µM
TGI [26]: 1.52 µM
GI50 [27]: 0.362 µM
TGI [27]: 1.86 µM
GI50 [28]: 1.8 µM
TGI [28]: 5.39 µM
GI50 [30]: 1.19 µM
TGI [30]: 5.7 µM
GI50 [58]: 1.64 µM
TGI [58]: 3.2 µM
GI50 [31]: 1.32 µM
TGI [31]: 3.35 µM
GI50 [32]: 1.95 µM
TGI [32]: 12.2 µM
GI50 [33]: 2.79 µM
TGI [33]: 10.3 µM
GI50 [34]: 3.02 µM
TGI [34]: 12 µM
GI50 [35]: 1.4 µM
TGI [35]: 2.98 µM
GI50 [36]: 0.43 µM
TGI [36]: 2.91 µM
GI50 [37]: 3.1 µM
TGI [37]: 14.4 µM
GI50 [38]: 1.32 µM
TGI [38]: 5.51 µM
GI50 [39]: 1.19 µM
TGI [39]: 8.43 µM
GI50 [59]: 0.482 µM
TGI [59]: 1.94 µM
GI50 [60]: 1.31 µM
TGI [60]: 2.66 µM
GI50 [40]: 2.63 µM
TGI [40]: 13.8 µM
GI50 [41]: 1.2 µM
TGI [41]: 2.45 µM
GI50 [42]: 1.89 µM
TGI [42]: 10.4 µM
GI50 [43]: 2.72 µM
TGI [43]: 11.2 µM
GI50 [44]: 1.15 µM
TGI [44]: 5.01 µM
GI50 [45]: 2.35 µM
TGI [45]: 8.74 µM
GI50 [46]: 0.316 µM
TGI [46]: 1.52 µM
GI50 [47]: 2.79 µM
TGI [47]: 11.2 µM
GI50 [48]: 0.92 µM
TGI [48]: 6.88 µM
GI50 [49]: 0.258 µM
TGI [49]: 1.57 µM
GI50 [50]: 0.199 µM
TGI [50]: 1.39 µM
GI50 [51]: 0.231 µM
TGI [51]: 1.34 µM
GI50 [52]: 0.247 µM
TGI [52]: 1.88 µM
GI50 [53]: 1.48 µM
TGI [53]: 4.2 µM
GI50 [54]: 0.0882 µM
TGI [54]: 0.718 µM
